Test system: control human primary myoblasts
Test: Expression microarray of primary myoblasts transduced with lentivirus carrying DUX4-fl, DUX4-s or GFP
Procedure: Primary human myoblasts were collected and cultured as previously described (Snider et al., 2010). Primary myoblasts were maintained at or below 70% confluency for proliferation. For differentiation, cells were allowed to reach 95-100% confluency in growth medium. Once confluency was reached, the cells were changed to differentiation medium (F10 media supplemented with 1% horse serum, 10 μg/mL insulin, and 10 μg/mL transferrin, penicillin/streptomycin) and maintained for 4 days. Human RD cells were grown in DMEM in 10% bovine calf serum (Hyclone) and penicillin/streptomycin. The primary myoblasts were transduced with lentivirus carrying DUX-fl, DUX4- or GFP (MOI=15).
Expression microarrays were performed on the transduced cells at 24 hours after transduction as follows. […] Samples were analyzed by Illumina Human Whole Genome microarrays. Probe intensities were corrected, normalized, and summarized by the Lumi package of Bioconductor (Du et al., 2008). Differentially expressed genes were identified by the LIMMA package of Bioconductor (Wettenhall and Smyth, 2004). Gene set enrichment analysis (GSEA) was performed using the Bioconductor GOstats package (Falcon and Gentleman, 2007).

[1] = 3-fold criteria (>1.584 log2-fold change and FDR<0.01)

Substance: DUX4-fl: full-length DUX4 protein (SEQ ID NO:110), expressed from lentiviral or pCS2 vectors or in vitro translated
- number of genes with increased expression: 1071 genes
- number of genes with decreased expression (2-fold change and FDR<0.01 vs lenti-GFP, 24 hours after transduction): 837 genes
- number of genes decreased [1]: 244 genes
- number of genes increased [1]: 466 genes
- BQ437417 (no symbol given) expression fc (Refseq BQ437417, cultured human skeletal muscle): −2.514
- fc of ACVRL1 (expression array) (Refseq NM_000020.1): −1.01
- fc of C3 (expression array) (Refseq NM_000064.1): −1
- CA2 expression fc (Refseq NM_000067.1): 6.091
- fc of COL1A1 (expression array) (Refseq NM_000088.3): −0.2992
- CST3 fc (Refseq NM_000099.2): −1.131
- ENG fc (Refseq NM_000118.1): −1.105
- fc of GAMT (expression array) (Refseq NM_000156.4): −1.021
- GBE1 fc (Refseq NM_000158.2): −1.129
- fc of IDS (expression array) (Refseq NM_000202.3): −1.025
- KCNA1 expression fc (Refseq NM_000217.2): 1.832
- SGCG expression fc (Refseq NM_000231.1): 1.863
- NP expression fc (Refseq NM_000270.1): 6.961
- fc of PTEN (expression array) (Refseq NM_000314.4): −1.031
- SLC3A1 expression fc (Refseq NM_000341.2): 2.736
- SOX9 expression fc (Refseq NM_000346.2): 3.099
- fc of PAFAH1B1 (expression array) (Refseq NM_000430.2): −0.3583
- HBA2 expression fc (Refseq NM_000517.3): 4.721
- fc of HBB (expression array) (Refseq NM_000518.4): −0.354
- HBA1 expression fc (Refseq NM_000558.3): 4.787
- IL8 expression fc (Refseq NM_000584.2, cultured human skeletal muscle): −3.885
- fc of IL15 (expression array) (Refseq NM_000585.2): −1.013
- TAP1 expression fc (Refseq NM_000593.5, cultured human skeletal muscle): −3.265
- fc of IL6 (expression array) (Refseq NM_000600.1): −0.8024
- IL10RB fc (Refseq NM_000628.3): −1.108
- fc of ALDH2 (expression array) (Refseq NM_000690.2): −1.011
- fc of ANXA1 (expression array) (Refseq NM_000700.1): −1.001
- fc of CYP2J2 (expression array) (Refseq NM_000775.2): −0.06948
- fc of GAS6 (expression array) (Refseq NM_000820.1): −1.026
- fc of MME (expression array) (Refseq NM_000902.3): −1.046
- P4HB fc (Refseq NM_000918.3): −1.109
- PTGFR fc (Refseq NM_000959.3): −1.089
- TOP2A fc (Refseq NM_001067.2): −1.157
- TYMS fc (Refseq NM_001071.1): −1.125
- VCAM1 expression fc (Refseq NM_001078.2, cultured human skeletal muscle): −3.014
- ALOX15B fc (Refseq NM_001141.2): −1.071
- ANPEP expression fc (Refseq NM_001150.1, cultured human skeletal muscle): −2.118
- ART3 expression fc (Refseq NM_001179.3): 4.363
- CA12 expression fc (Refseq NM_001218.3, cultured human skeletal muscle): −2.629
- fc of CASP4 (expression array) (Refseq NM_001225.3): −1.059
- CD68 fc (Refseq NM_001251.1): −1.091
- CLIC1 fc (Refseq NM_001288.4): −1.083
- CXADR expression fc (Refseq NM_001338.3): 2.494
- DPYSL2 fc (Refseq NM_001386.4): −1.1
- EMP3 fc (Refseq NM_001425.1): −1.139
- FLT3LG fc (Refseq NM_001459.2): −1.065
- CXCL1 expression fc (Refseq NM_001511.1, cultured human skeletal muscle): −3.523
- fc of HAS1 (expression array) (Refseq NM_001523.1): −1.063
- PRMT2 fc (Refseq NM_001535.2): −1.119
- NDST1 fc (Refseq NM_001543.3): −1.069
- IFIT2 expression fc (Refseq NM_001547.4, cultured human skeletal muscle): −4.315
- IFIT1 expression fc (Refseq NM_001548.3, cultured human skeletal muscle): −4.379
- IFIT3 expression fc (Refseq NM_001549.2, cultured human skeletal muscle): −3.857
- IFRD1 expression fc (Refseq NM_001550.2): 2.99
- IGFBP4 expression fc (Refseq NM_001552.2, cultured human skeletal muscle): −1.937
- fc of CXCL10 (expression array) (Refseq NM_001565.2): −0.8766
- AARS fc (Refseq NM_001605.2): −1.067
- ACP2 fc (Refseq NM_001610.1): −1.126
- TRIM23 expression fc (Refseq NM_001656.3): 2.235
- ARSD fc (Refseq NM_001669.2): −1.079
- fc of AUH (expression array) (Refseq NM_001698.1): −1.06
- CFB expression fc (Refseq NM_001710.4, cultured human skeletal muscle): −5.623
- C1R expression fc (Refseq NM_001733.4, cultured human skeletal muscle): −2.829
- CAV1 fc (Refseq NM_001753.3): −1.097
- fc of RUNX1 (expression array) (Refseq NM_001754.3): −0.2108
- fc of CCND2 (expression array) (Refseq NM_001759.2): −1.057
- CD9 expression fc (Refseq NM_001769.2): 1.992
- CDH11 fc (Refseq NM_001797.2): −1.174
- HBEGF expression fc (Refseq NM_001945.1): 3.868
- ECGF1 expression fc (Refseq NM_001953.2, cultured human skeletal muscle): −4.299
- EGR1 expression fc (Refseq NM_001964.2): 3.749
- ETV6 fc (Refseq NM_001987.4): −1.1
- EYA3 expression fc (Refseq NM_001990.2): 2.572
- fc of ACSL1 (expression array) (Refseq NM_001995.2): −1.015
- FES fc (Refseq NM_002005.2): −1.108
- FTH1 expression fc (Refseq NM_002032.2, cultured human skeletal muscle): −2.029
- GTF2F1 expression fc (Refseq NM_002096.1): 3.208
- HLA-A fc (Refseq NM_002116.5): −1.08
- HMOX1 expression fc (Refseq NM_002133.1, cultured human skeletal muscle): −1.924
- HOXB2 expression fc (Refseq NM_002145.3): 2.202
- HSPA6 expression fc (Refseq NM_002155.3): 1.994
- ID2 expression fc (Refseq NM_002166.4): 2.336
- fc of IFNB1 (expression array) (Refseq NM_002176.2): −0.3894
- INSM1 expression fc (Refseq NM_002196.2): 1.801
- IRF1 expression fc (Refseq NM_002198.1, cultured human skeletal muscle): −2.643
- ISG20 expression fc (Refseq NM_002201.4, cultured human skeletal muscle): −2.94
- fc of ITGA3 (expression array) (Refseq NM_002204.1): −1.041
- fc of JUNB (expression array) (Refseq NM_002229.2): −1.063
- JUP expression fc (Refseq NM_002230.1): 3.172
- KPNA2 expression fc (Refseq NM_002266.2): 2.416
- fc of LAMC1 (expression array) (Refseq NM_002293.2): −0.5108
- fc of LSS (expression array) (Refseq NM_002340.3): −1.045
- LTBR fc (Refseq NM_002342.1): −1.155
- LUM fc (Refseq NM_002345.3): −1.126
- LY6E expression fc (Refseq NM_002346.1, cultured human skeletal muscle): −3.251
- fc of MDM2 (expression array) (Refseq NM_002392.2): −0.588
- MX1 expression fc (Refseq NM_002462.2, cultured human skeletal muscle): −5.675
- MX2 expression fc (Refseq NM_002463.1, cultured human skeletal muscle): −4.066
- fc of MYF6 (expression array) (Refseq NM_002469.1): −1.042
- MYOD1 fc (Refseq NM_002478.4): −1.113
- NFYA expression fc (Refseq NM_002505.3): 2.335
- OAS2 expression fc (Refseq NM_002535.2, cultured human skeletal muscle): −2.711
- ODC1 expression fc (Refseq NM_002539.1): 3.657
- PDE4B fc (Refseq NM_002600.3): −1.143
- PFKP fc (Refseq NM_002627.3): −1.106
- PIM1 expression fc (Refseq NM_002648.2): 2.215
- EXOSC10 expression fc (Refseq NM_002685.2): 1.937
- PNN expression fc (Refseq NM_002687.3): 1.949
- PRKD1 fc (Refseq NM_002742.2): −1.099
- PSMB9 expression fc (Refseq NM_002800.4, cultured human skeletal muscle): −3.137
- PTX3 expression fc (Refseq NM_002852.2, cultured human skeletal muscle): −2.744
- PYGB expression fc (Refseq NM_002862.3, cultured human skeletal muscle): −2.046
- fc of RAB13 (expression array) (Refseq NM_002870.2): −1.032
- fc of RBMS1 (expression array) (Refseq NM_002897.3): −0.6159
- fc of RBMS2 (expression array) (Refseq NM_002898.2): −0.772
- RXRA fc (Refseq NM_002957.3): −1.132
- CCL2 expression fc (Refseq NM_002982.3, cultured human skeletal muscle): −2.681
- CCL5 expression fc (Refseq NM_002985.2, cultured human skeletal muscle): −2.528
- CXCL6 expression fc (Refseq NM_002993.2, cultured human skeletal muscle): −1.994
- CXCL5 expression fc (Refseq NM_002994.3, cultured human skeletal muscle): −2.469
- SLC2A5 expression fc (Refseq NM_003039.1, cultured human skeletal muscle): −1.958
- SLC22A4 fc (Refseq NM_003059.2): −1.134
- SNAI2 expression fc (Refseq NM_003068.3, cultured human skeletal muscle): −2.095
- fc of SMARCD3 (expression array) (Refseq NM_003078.3): −1.022
- SNRNP70 expression fc (Refseq NM_003089.4): 1.885
- SOX4 expression fc (Refseq NM_003107.2): 1.809
- SPG7 fc (Refseq NM_003119.2): −1.113
- SRP19 expression fc (Refseq NM_003135.1): 1.866
- fc of STRN (expression array) (Refseq NM_003162.2): −0.2348
- THBS1 fc (Refseq NM_003246.2): −1.092
- UBA7 expression fc (Refseq NM_003335.2, cultured human skeletal muscle): −2.561
- fc of UGCG (expression array) (Refseq NM_003358.1): −0.8891
- WEE1 fc (Refseq NM_003390.2): −1.099
- WNT5A fc (Refseq NM_003392.3): −1.103
- fc of XPO1 (expression array) (Refseq NM_003400.3): −1.04
- fc of ZFP36 (expression array) (Refseq NM_003407.2): −1.044
- ZKSCAN1 fc (Refseq NM_003439.1): −1.082
- fc of Cxorfl2 (expression array) (Refseq NM_003492.1): −1.02
- fc of TAGLN2 (expression array) (Refseq NM_003564.1): −1.002
- fc of EEA1 (expression array) (Refseq NM_003566.2): −0.963
- IFITM1 expression fc (Refseq NM_003641.3, cultured human skeletal muscle): −6.118
- fc of VAMP8 (expression array) (Refseq NM_003761.2): −1.02
- fc of VAMP4 (expression array) (Refseq NM_003762.3): −1.018
- RNGTT expression fc (Refseq NM_003800.3): 2.018
- RIPK1 fc (Refseq NM_003804.3): −1.103
- TNFSF10 fc (Refseq NM_003810.2): −1.127
- TNFRSF14 expression fc (Refseq NM_003820.2, cultured human skeletal muscle): −2.72
- fc of RIOK3 (expression array) (Refseq NM_003831.2): −0.5229
- TNFRSF10A fc (Refseq NM_003844.2): −1.126
- PEX11B fc (Refseq NM_003846.1): −1.142
- CES2 expression fc (Refseq NM_003869.4, cultured human skeletal muscle): −2.043
- CFLAR expression fc (Refseq NM_003879.3, cultured human skeletal muscle): −1.94
- fc of ASAP2 (expression array) (Refseq NM_003887.2): −1.028
- CCNA1 expression fc (Refseq NM_003914.2): 7.526
- fc of USP13 (expression array) (Refseq NM_003940.2): −0.08799
- NPR2 fc (Refseq NM_003995.3): −1.166
- fc of OSMR (expression array) (Refseq NM_003999.1): −0.7417
